Results: patent US10076509B2, “Nested particles and the use thereof for coordinated delvery of active agents” (Board of Regents, the University of Texas System, priority 2015, dated 2018)

How the values were obtained:
[1] = Release kinetics from nested nanoparticles (fluorophore release, zeta potential over time); assay type: physicochemical; settings: PBS pH 7.4, 37° C.
Experimental: FIGS. 4A-C. Examination of nested nanoparticle release kinetics. 4A. […] 4B. […] 4C.
Fluorophore release was determined according to a previously published procedure (Woodrow et al., 2009). Absorbance of bodipy and rhodamine were detected using the Synergy H4 Hybrid Reader as described above. In a separate study, nanoparticles were centrifuged at predetermined timepoints, resuspended in water, and the surface charge determined via zeta potential analysis, as described above.

[2] = Finite Element modeling of release kinetics from nested nanoparticles
From the text: Due to the fact that the physico-chemical properties of the core and shell, as well as bodipy and rhodamine, are different, a computational method accounting for diffusivities and molecule partitioning was used to analyze release kinetics from nested nanoparticles. Use of the model helped determine that sequential release may be achieved and controlled not only by different diffusion properties in different phases, but also partitioning. […] The model estimated experimental release curves by using partitioning coefficients of 5.0×109 and 2.2×1011 for bodipy and rhodamine, respectively (FIG. 4a). The half-time of release of the maximum releasable material was estimated to be 15 h for the shell and 46 h for the core. The diffusivity of rhodamine inside the PLGA nanoparticle matrix was estimated to be 4×10^−10 cm2/s, which was approximately 104 times lower than that in water, while that of bodipy in the shell was reduced by only 5 times compared to that in water. […] This is illustrated in the distinct phases of dominant fluxes over time (FIG. 4b).
A Finite Element (FE) method was used to model drug diffusion. The model included partitioning conditions at the surfaces, in this case between the core and the surrounding fluid. Thus, aside from the incremental-iterative system of mass balance equations (Kojic et al., 2008; Ziemys et al., 2011; Kojic et al., 2011):
the partitioning condition was included ΔNs/ΔNf=ΔCs/Δf=P Here, M and K are element mass and diffusion matrices, ΔC represents nodal concentration increments, Q^ext and Q^tnt are external and internal nodal mass fluxes; ΔNs and ΔNf are number of molecules of solid and fluid (per FE node) passing during time step Δt, and ΔCs and ΔCf are the corresponding concentration changes at boundary nodes with partitioning property; P is partitioning coefficient; and i specifies the equilibrium iteration counter. The important material parameter in the above balance equation is the diffusion coefficient D entering the diffusion matrix K:
[formula] where NI, NJ are interpolation functions and V is element volume. […]

[3] = system: MCF-7 breast tumor xenografts; assay: In vivo accumulation and release of nested nanoparticles in breast tumors
Experimental: MCF-7 cells (5×10^6) were inoculated in the mammary fat pads of 4- to 6-week-old female nu/nu mice. Mice were implanted with 17β-estradiol pellets subcutaneously. Nanoparticles were administered intravenously and at predetermined timepoints, the mouse was sacrificed and the tumor harvested. Tumor tissues were frozen and sectioned into 7 μm tissue slices using an HM 550 Cryostat (Thermo Fischer Scientific, Waltham, Mass., USA). Tissues were fixed and stained with 4% methanol-free paraformaldehyde for 20 min. Following fixation, samples were washed with PBS. Slides were mounted and tissues imaged using confocal microscopy as previously described. The presence of fluorescence over time, surface intensity plots, and area fraction of the tissue sections were examined using Nikon Elements v4.1 software. For area fraction analysis, the fluorescence emitted by bodipy and rhodamine was obtained from 4 sections from different regions of the tumor (n=3). A ratiometric percentage of area fractions of both fluorophores were extracted from the total area of the image.

[4] = model parameter; from literature for rhodamine, approximated from literature for bodipy; cited from earlier work
[5] = Release of rapamycin and paclitaxel from nested nanoparticles; assay type: physicochemical; settings: rapamycin in outer shell, paclitaxel in polymeric core
From the text: FIG. 14. Nested nanoparticles containing both rapamycin and paclitaxel release drug in a time and sequential fashion.

[6] = initial timepoints leading up to 3 h, bodipy in QAβ-CD shell, rhodamine in PLGA core

Time after which release plateaus [1] [h] | Cumulative release from nested nanoparticles ([1]; by 6 h) [%] | Cumulative release from nested nanoparticles ([1]; by 12 h) [%] | Cumulative release from nested nanoparticles [1, 6] [%] | Reduction of diffusivity inside material compared to that in water ([2]; rhodamine in PLGA matrix, bodipy in shell) [times] | Area fraction of fluorophore in tumor ([3]; mouse, in vivo, iv) | Area fraction: amount of fluorophore in tumor ([3]; mouse, in vivo, iv) | Fluorophore in tumor tissue ([3]; mouse, in vivo, iv) | Cumulative release from nested nanoparticles ([1]; "by this same timepoint" (12 h or 48 h, not clear)) [%] | Cumulative release from nested nanoparticles ([1]; in 96 h) [%] | Time after which rhodamine flux overtook the flux of bodipy ([2]; fluxes of release from nested nanoparticles) [h] | Diffusivity inside the PLGA nanoparticle matrix ([2]; model estimate) | Area fraction of fluorophore in tumor ([3]; 3 h after intravenous nested nanoparticles) | Area fraction: amount of fluorophore in tumor ([3]; 96 h after intravenous nested nanoparticles) | Release from nested nanoparticles [5] | Compound | Dwater (diffusivity in water) [4]
> 48 | 34 | 50 | 7 | 5 | ratiometrically similar amounts | decreased significantly | marked decrease | – | – | – | – | – | – | – | O=C(COc1ccc(/C=C/C2=[N+]3C(=Cc4ccc(-c5cccs5)n4[B-]3(F)F)C=C2)cc1)NCCCCCC(=O)ON1C(=O)CCC1=O [bodipy] | –
– | – | – | 3 | – | – | – | – | ~6 | 34 | > 24 | 4×10^−10 cm2/s | ratiometrically similar amounts | increase | – | Rhodamine | 4.10^−6 cm^2/s
– | – | – | – | – | – | – | – | – | – | – | – | – | – | slow and prolonged release | CC(=O)O[C@H]1C(=O)[C@@]2(C)[C@H]([C@H](OC(=O)c3ccccc3)[C@]3(O)C[C@H](OC(=O)[C@H](O)[C@@H](NC(=O)c4ccccc4)c4ccccc4)C(C)=C1C3(C)C)[C@]1(OC(C)=O)CO[C@@H]1C[C@@H]2O [paclitaxel] | –
